Test results: PMC8190080, “Tanshinones induce tumor cell apoptosis via directly targeting FHIT” (Scientific Reports, 2021)

Assays:
FHIT [1] = molecular target: T1, FHIT (Homo sapiens, UniProt P49789); assay: Cellular MST assay, HEK293T cell lysate containing GFP tagged FHIT; assay type: binding; details: GFP-FHIT in HEK293T cell lysate, 25 °C
T1 construct: GST (N, cleaved yes); made in house; host or cells: E. coli BL21 (DE3)
Protocol: (§1) Ten million 293 cells overexpressing GFP-tagged FHIT or free GFP were lysed in 0.5 mL M-PER mammalian protein extraction reagent (Thermo Fisher Scientific). Cell lysates were diluted in PBS buffer to a final concentration at which the fluorescent signals of the GFP proteins were suitable for the detection of the Monolith NT.115 instrument (NanoTemper Technologies). A single point screening assay was developed against GFP-FHIT protein to find potential binding molecules from compound libraries (L1021,APExBIO). For binding affinity detection, a 10µL protein sample was mixed with 10µL ligand at various concentrations as indicated. And the purified proteins were labeled by Red- NHS kit in accordance with the manufacturer’s protocol (MO-L011, NanoTemper Technologies). Then the mixture solutions were loaded into NT.115 standard coated capillaries or premium coated capillaries (NanoTemper Technologies), and the MST measurements were performed at 25 °C. The fluorescence signal during the thermophoresis was monitored and the change in fluorescence was analyzed by software. The Kd was calculated by fitting a standard binding curve to the series diluted ligands. And data were analyzed by GraphPad Prism 7.0.

FHIT truncation TR1 = FHIT truncation TR1 (Homo sapiens, UniProt P49789); assay: Cellular MST assay, GFP tagged FHIT truncation TR1; assay type: binding
Protocol: as §1

FHIT truncation TR2 = FHIT truncation TR2 (Homo sapiens, UniProt P49789); assay: Cellular MST assay, GFP tagged FHIT truncation TR2; assay type: binding
Protocol: as §1

ENPP1 = molecular target: T2, ENPP1 (Homo sapiens, UniProt P22413); assay: MST assay, ENPP1; assay type: binding
T2 sequence (P22413 1-925): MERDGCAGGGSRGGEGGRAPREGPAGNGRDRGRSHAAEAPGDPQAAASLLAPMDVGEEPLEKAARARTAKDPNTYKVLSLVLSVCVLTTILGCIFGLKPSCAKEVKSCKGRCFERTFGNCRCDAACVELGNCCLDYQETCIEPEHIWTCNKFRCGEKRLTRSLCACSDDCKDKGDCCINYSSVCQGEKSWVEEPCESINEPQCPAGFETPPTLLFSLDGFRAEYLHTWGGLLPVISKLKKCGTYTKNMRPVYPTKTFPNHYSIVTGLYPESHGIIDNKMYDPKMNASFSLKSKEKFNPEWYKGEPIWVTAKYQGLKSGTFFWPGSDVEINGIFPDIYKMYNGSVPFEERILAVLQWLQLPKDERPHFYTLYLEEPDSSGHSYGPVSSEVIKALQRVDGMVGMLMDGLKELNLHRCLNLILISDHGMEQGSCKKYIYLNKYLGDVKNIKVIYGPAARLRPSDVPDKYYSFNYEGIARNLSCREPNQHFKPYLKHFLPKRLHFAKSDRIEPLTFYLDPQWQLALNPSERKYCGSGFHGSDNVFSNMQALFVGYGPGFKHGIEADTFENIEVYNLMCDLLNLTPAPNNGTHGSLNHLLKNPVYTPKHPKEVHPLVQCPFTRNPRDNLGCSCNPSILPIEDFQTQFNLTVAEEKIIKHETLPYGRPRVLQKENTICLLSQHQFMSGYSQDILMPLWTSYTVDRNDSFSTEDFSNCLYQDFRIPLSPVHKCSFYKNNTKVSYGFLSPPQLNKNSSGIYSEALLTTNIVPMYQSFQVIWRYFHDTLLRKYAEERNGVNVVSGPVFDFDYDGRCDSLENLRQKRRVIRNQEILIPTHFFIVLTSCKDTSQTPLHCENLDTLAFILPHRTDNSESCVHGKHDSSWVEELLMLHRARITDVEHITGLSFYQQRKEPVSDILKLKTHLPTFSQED

FHIT [2] = molecular target: T1, FHIT; assay: FHIT hydrolase activity detection assay (Ap3A, ADP-Glo); assay type: biochemical; details: 5 nM FHIT, 500 nM Ap3A, ADP production by ADP-Glo
Protocol: 5 nM FHIT protein was mixed with series diluted compounds as indicated in assay buffer (20 mM Tris–HCl, 2 mM DTT, 5 mM MgCl2, pH7.5) in a final DMSO concentration of 1% in a total volume of 20 μL. The mixtures were incubated for 30 min at 25 °C, then 500 nM Ap3A was added. After incubation at 25 °C for 5 min, the production of ADP in the reaction system was detected by ADP-Glo reagent (V6930, Promega) according to the manufacturer’s protocol in 384-well. Luminescence was read by spark (TECAN), an integration time of 1 s per well. And the data were analyzed by GraphPad Prism 7.0.

FHIT (H96N) = molecular target: T3, FHIT (H96N) (Homo sapiens, UniProt P49789, H96N); assay: Fluorescence polarization assay, FHIT H96N-ApppBODIPY binding inhibition; details: 5 µM FHIT (H96N), 1 µM ApppBODIPY
T3 construct: GST (N, cleaved yes); made in house; host or cells: E. coli BL21 (DE3)
Protocol: The binding of FHIT (H96N) to fluorescein-labeled substrates ApppBODIPY was analyzed by fluorescence polarization assay in 384-well format for dose–response curve studies using spark instrument (TECAN) according to the protocol reported before. And 5 µM FHIT (H96N) protein was incubated with 1 µM fluorescein-labeled substrates in buffer A (25 mM Tris–HCl, pH 7.5, 5 mM MgCl2 and 2 mM DTT) with series diluted inhibitors as indicated. Each sample was allowed to equilibrate in the solution for 30 min. After 30 min, the steady-state fluorescence anisotropy (mP) was measured. A second reading was taken after 10 min, to ensure that the mixture was well-equilibrated and stable. Less than 5% change was observed between 30 and 40 min measurements. The IC50 value was determined by fitting the binding curves using GraphPad Prism 7.0.

T1 sequence (P49789 whole entry): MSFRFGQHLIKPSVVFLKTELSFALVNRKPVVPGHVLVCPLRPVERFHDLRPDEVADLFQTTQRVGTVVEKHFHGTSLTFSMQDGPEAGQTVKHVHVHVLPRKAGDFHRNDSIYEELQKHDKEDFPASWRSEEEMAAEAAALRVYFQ
T3 sequence (P49789 whole entry H96N): as the sequence (P49789 whole entry) above, with H96N counted along it
FHIT truncation TR1, sequence (P49789 2-109): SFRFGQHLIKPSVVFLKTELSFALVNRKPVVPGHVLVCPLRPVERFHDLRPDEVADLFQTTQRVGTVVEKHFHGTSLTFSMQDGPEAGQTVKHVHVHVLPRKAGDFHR
FHIT truncation TR2, sequence (P49789 whole entry, the tested form may be a part): as the sequence (P49789 whole entry) above

Cc1c(S(=O)(=O)O)oc2c1C(=O)C(=O)c1c-2ccc2c1CCCC2(C)C [STS, Sodium tanshinone IIA sulfonate]
Kd (FHIT [1]): 0.268 ± 0.0426 µM | Kd (FHIT truncation TR1): 75.1 µM | Kd (FHIT truncation TR2): 58.2 µM | Kd (ENPP1): 27.2 ± 1.96 µM | IC50 (FHIT [2]): 0.34 ± 0.09 µM | IC50 (FHIT (H96N)): 2.2 ± 0.05 µM
